Among the test systems are LOX IMVI melanoma; KM12 colon; NCI-H23 lung; SN12C renal; MALME-3M melanoma; PC-3 prostate; U251 CNS.
Experiment in all cases: NCI tumour cell line growth inhibition, 48 h

Structures are written as SMILES.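 Method: 48-hour compound exposure of cells in 96-well plates, five concentrations, linear interpolation of endpoints. The concentration for full growth arrest is given as TGI.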

Turning to `CCN(CC)C1Oc2cc3c(cc2C(c2cccc(OC)c2O)C1C)OCO3` (centres undefined), the TGI in the test with LOX IMVI melanoma is 22.2 µM; with KM12 colon, 16.6 µM; in the test with NCI-H23 lung, 43.5 µM; with SN12C renal, 16.4 µM; in the test with MALME-3M melanoma it was 21.7 µM; in the test on PC-3 prostate it was above 35.8 µM. Also, the TGI with U251 CNS came out at 17.9 µM.

Consider `O=S1(=O)OCCCOS(=O)(=O)C1(Br)Br`, for which the TGI with LOX IMVI melanoma, with KM12 colon, in the test on NCI-H23 lung, in the test on SN12C renal, with MALME-3M melanoma and in the test with PC-3 prostate was above 100 µM each time. The TGI in the test on U251 CNS is above 100 µM.

For `CC(C)=CCC[C@@H](C)C1=CC(=O)C(C)=C(O)C1=O`, the TGI is 11.9 µM in the test on LOX IMVI melanoma; 16.1 µM in the test on KM12 colon; 21.1 µM with NCI-H23 lung; 22.6 µM in the test on SN12C renal; 23.3 µM in the test on MALME-3M melanoma; 18.2 µM in the test with PC-3 prostate. In addition, the TGI in the test on U251 CNS worked out at 38.7 µM.

Take `CS(=O)(=O)OCC1CCCCCCCCCCC12SCCCS2` (centres undefined): the TGI in the test with LOX IMVI melanoma, in the test on KM12 colon, in the test with NCI-H23 lung, in the test with SN12C renal, with MALME-3M melanoma and with PC-3 prostate was above 100 µM each time. For the same compound, in the test with U251 CNS, the TGI was above 100 µM.

For `CO[C@]12CC(=O)C3(C(C[C@H]4CC5CC[C@H]6C[C@@H](OC(C)=O)CC[C@]6(OC(C)=O)C5C[C@@]43C)C1)C1C[C@H]3[C@@H]4CC[C@H]5C[C@@H](OC(C)=O)CC[C@]5(OC(C)=O)[C@H]4CC[C@]3(C)C12` (some centres undefined), the TGI with LOX IMVI melanoma, in the test on KM12 colon, with NCI-H23 lung, with SN12C renal, in the test with MALME-3M melanoma and with PC-3 prostate was above 100 µM each time. In the test with U251 CNS, this compound had a TGI above 100 µM.

Regarding `Cc1ccc2c(=O)cc(Cc3csc4ccccc34)[nH]c2n1`, the TGI is 40.6 µM with LOX IMVI melanoma; above 100 µM in the test with KM12 colon; 53.4 µM with NCI-H23 lung; above 100 µM with SN12C renal; 62.1 µM in the test on MALME-3M melanoma; above 100 µM in the test with PC-3 prostate. The compound also showed a TGI in the test on U251 CNS above 100 µM.

For `COC1=CC(=O)c2nc3ccccc3c3ccnc1c23`, the TGI is 22.7 µM in the test on LOX IMVI melanoma; above 43.3 µM with KM12 colon; 16 µM in the test on NCI-H23 lung; above 45.1 µM with SN12C renal; 7 µM with MALME-3M melanoma; above 31.3 µM with PC-3 prostate. In the test on U251 CNS, this compound displayed a TGI above 67.3 µM.

With `CCN(CC)c1ccc2cc(C(N)=O)c(=Nc3ccc(F)cc3)oc2c1`, the TGI in the test with LOX IMVI melanoma, with KM12 colon, in the test on NCI-H23 lung, in the test on SN12C renal, with MALME-3M melanoma and in the test on PC-3 prostate was above 100 µM in each case. Besides, in the test with U251 CNS, the TGI is above 100 µM.

Take `CC(=O)OCC1OC(n2c(N)c(C#N)c(-c3cccc(Cl)c3)c(C#N)c2=S)C(OC(C)=O)C(OC(C)=O)C1OC(C)=O` (centres undefined): the TGI in the test with LOX IMVI melanoma is 30.1 µM; in the test with KM12 colon it was 38.9 µM; in the test on NCI-H23 lung, 92.7 µM; in the test on SN12C renal, above 100 µM; in the test with MALME-3M melanoma, above 100 µM; in the test with PC-3 prostate it was above 100 µM. In the test with U251 CNS, this compound returned a TGI of 78.9 µM.

Turning to `O=C(N[C@H]1CCC[C@H]1C(=O)Nc1ccc(C(F)(F)F)cc1)OCc1ccccc1`, the TGI with LOX IMVI melanoma, in the test with KM12 colon, with NCI-H23 lung, in the test with SN12C renal, with MALME-3M melanoma and in the test with PC-3 prostate was above 100 µM each time. In addition, in the test with U251 CNS, the TGI was above 100 µM.

Take `COc1cc([C@@H]2c3cc4c(cc3[C@@H](c3c(O)cc(O)c5c3O[C@H](c3ccc(O)c(O)c3)[C@H](OC(=O)c3cc(O)c(O)c(O)c3)C5)[C@H]3COC(=O)[C@H]23)OCO4)cc(OC)c1O`: the TGI in the test with LOX IMVI melanoma, in the test with KM12 colon, with NCI-H23 lung, in the test on SN12C renal, in the test with MALME-3M melanoma and in the test with PC-3 prostate was above 100 µM each time. This compound yielded a TGI in the test with U251 CNS above 100 µM.

With `Cc1cc2oc3c(ccc(=O)n3C)c(=O)c2c(C)c1Cl`, the TGI in the test with LOX IMVI melanoma, in the test on KM12 colon, with NCI-H23 lung, with SN12C renal, with MALME-3M melanoma and in the test on PC-3 prostate was above 100 µM each time. The same compound displayed a TGI in the test with U251 CNS above 100 µM.
